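How tested: cells in 96-well plates exposed to compound for 48 hours at five concentrations. GI50 = concentration required for 50% inhibition of growth.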 Calls of active or inactive are those of the source. Rule as the data show it: active = GI50 up to about 1.1 µM and inactive = higher.
Columns and labels:
Experiment in all cases: growth of human tumour cells (NCI), 48 h
SK-MEL-2 = test system: SK-MEL-2
M14 = test system: M14
SK-MEL-28 = test system: SK-MEL-28
RXF 393 = test system: RXF 393
HCT-116 = test system: HCT-116
OVCAR-8 = test system: OVCAR-8
DU-145 = test system: DU-145
Hs-578T = test system: Hs-578T
EKVX = test system: EKVX
NCI-H522 = test system: NCI-H522
OVCAR-3 = test system: OVCAR-3
SR = test system: SR
IGROV-1 = test system: IGROV-1
HT-29 = test system: HT-29
OVCAR-4 = test system: OVCAR-4
Malme-3M = test system: Malme-3M
CCRF-CEM = test system: CCRF-CEM
SN12C = test system: SN12C
SNB-19 = test system: SNB-19
HCC 2998 = test system: HCC 2998
CAKI-1 = test system: CAKI-1
HOP-92 = test system: HOP-92
HL-60 = test system: HL-60
LOX IMVI = test system: LOX IMVI
NCI-H460 = test system: NCI-H460
SF-539 = test system: SF-539
ACHN = test system: ACHN
K562 = test system: K562
COLO 205 = test system: COLO 205
SF-295 = test system: SF-295
NCI/ADR-RES = test system: NCI/ADR-RES
BT-549 = test system: BT-549
SK-MEL-5 = test system: SK-MEL-5
OVCAR-5 = test system: OVCAR-5
MDA-MB-231 = test system: MDA-MB-231
T47D = test system: T47D
MCF7 = test system: MCF7
UACC-257 = test system: UACC-257
UO-31 = test system: UO-31
UACC-62 = test system: UACC-62
HCT-15 = test system: HCT-15
SK-OV-3 = test system: SK-OV-3
RPMI-8226 = test system: RPMI-8226
NCI-H226 = test system: NCI-H226
A498 = test system: A498
PC-3 = test system: PC-3
MDA-MB-435 = test system: MDA-MB-435
TK-10 = test system: TK-10
NCI-H23 = test system: NCI-H23
HOP-62 = test system: HOP-62
KM12 = test system: KM12
786-0 = test system: 786-0
SNB-75 = test system: SNB-75
SF-268 = test system: SF-268
U-251 = test system: U-251
MOLT-4 = test system: MOLT-4
MDA-N = test system: MDA-N
SW-620 = test system: SW-620
A549 = test system: A549

SMILES: NC1CC(=O)c2c(I)sc(I)c21 (configuration not stated)
- GI50 (SK-MEL-2): 17.9 µM (inactive)
- GI50 (M14): 27.2 µM (inactive)
- GI50 (SK-MEL-28): 21.4 µM (inactive)
- GI50 (RXF 393): 21.4 µM (inactive)
- GI50 (HCT-116): 12.4 µM (inactive)
- GI50 (OVCAR-8): 20.6 µM (inactive)
- GI50 (DU-145): 24 µM (inactive)
- GI50 (Hs-578T): 30.3 µM (inactive)
- GI50 (EKVX): 19.9 µM (inactive)
- GI50 (NCI-H522): 7.69 µM (inactive)
- GI50 (OVCAR-3): 20 µM (inactive)
- GI50 (SR): 13.4 µM (inactive)
- GI50 (IGROV-1): 15.2 µM (inactive)
- GI50 (HT-29): 20.2 µM (inactive)
- GI50 (OVCAR-4): 20.1 µM (inactive)
- GI50 (Malme-3M): 13.7 µM (inactive)
- GI50 (CCRF-CEM): 3.27 µM (inactive)
- GI50 (SN12C): 27.3 µM (inactive)
- GI50 (SNB-19): 23.8 µM (inactive)
- GI50 (HCC 2998): 22 µM (inactive)
- GI50 (CAKI-1): 11.6 µM (inactive)
- GI50 (HOP-92): 22.8 µM (inactive)
- GI50 (HL-60): 4.24 µM (inactive)
- GI50 (LOX IMVI): 13.3 µM (inactive)
- GI50 (NCI-H460): 17.7 µM (inactive)
- GI50 (SF-539): 8.89 µM (inactive)
- GI50 (ACHN): 20.9 µM (inactive)
- GI50 (K562): 8.95 µM (inactive)
- GI50 (COLO 205): 14.9 µM (inactive)
- GI50 (SF-295): 21 µM (inactive)
- GI50 (NCI/ADR-RES): 26.9 µM (inactive)
- GI50 (BT-549): 18.4 µM (inactive)
- GI50 (SK-MEL-5): 27.6 µM (inactive)
- GI50 (OVCAR-5): 24.1 µM (inactive)
- GI50 (MDA-MB-231): 20 µM (inactive)
- GI50 (T47D): 46.2 µM (inactive)
- GI50 (MCF7): 25.4 µM (inactive)
- GI50 (UACC-257): 19.8 µM (inactive)
- GI50 (UO-31): 19.2 µM (inactive)
- GI50 (UACC-62): 16.7 µM (inactive)
- GI50 (HCT-15): 9.31 µM
- GI50 (SK-OV-3): 44.5 µM (inactive)
- GI50 (RPMI-8226): 4.41 µM (inactive)
- GI50 (NCI-H226): 19.1 µM (inactive)
- GI50 (A498): 20 µM (inactive)
- GI50 (PC-3): 18.7 µM (inactive)
- GI50 (MDA-MB-435): 16.4 µM (inactive)
- GI50 (TK-10): 19 µM (inactive)
- GI50 (NCI-H23): 17.1 µM (inactive)
- GI50 (HOP-62): 19.1 µM (inactive)
- GI50 (KM12): 15.4 µM (inactive)
- GI50 (786-0): 11.2 µM (inactive)
- GI50 (SNB-75): 20.6 µM (inactive)
- GI50 (SF-268): 21 µM (inactive)
- GI50 (U-251): 9.79 µM (inactive)
- GI50 (MOLT-4): 12.1 µM (inactive)
- GI50 (MDA-N): 19.7 µM (inactive)
- GI50 (SW-620): 11.6 µM (inactive)
- GI50 (A549): 29.8 µM (inactive)

SMILES: Cc1cnc2[nH]c(-c3cccc(F)c3)cc(=O)c2c1
- GI50 (SK-MEL-2): 0.0802 µM (active)
- GI50 (M14): 0.0342 µM (active)
- GI50 (SK-MEL-28): 0.0352 µM (active)
- GI50 (RXF 393): 0.0418 µM (active)
- GI50 (HCT-116): 0.034 µM (active)
- GI50 (OVCAR-8): 0.0582 µM (active)
- GI50 (DU-145): 0.0459 µM (active)
- GI50 (Hs-578T): 0.0121 µM (active)
- GI50 (EKVX): 0.2 µM (active)
- GI50 (NCI-H522): 0.0255 µM (active)
- GI50 (OVCAR-3): 0.0139 µM (active)
- GI50 (SR): 0.0229 µM (active)
- GI50 (IGROV-1): 0.161 µM (active)
- GI50 (HT-29): 0.0308 µM (active)
- GI50 (OVCAR-4): 1.31 µM (inactive)
- GI50 (Malme-3M): 0.0232 µM (active)
- GI50 (CCRF-CEM): 0.0353 µM (active)
- GI50 (SN12C): 0.0687 µM (active)
- GI50 (SNB-19): 0.0546 µM (active)
- GI50 (HCC 2998): 0.111 µM (active)
- GI50 (CAKI-1): 0.0317 µM (active)
- GI50 (HOP-92): 1.4 µM (inactive)
- GI50 (HL-60): 0.0186 µM (active)
- GI50 (LOX IMVI): 0.0668 µM (active)
- GI50 (NCI-H460): 0.0411 µM (active)
- GI50 (SF-539): 0.0326 µM (active)
- GI50 (ACHN): 0.0664 µM (active)
- GI50 (K562): 0.0266 µM (active)
- GI50 (COLO 205): 0.0214 µM (active)
- GI50 (SF-295): 0.0322 µM (active)
- GI50 (NCI/ADR-RES): 0.0146 µM (active)
- GI50 (BT-549): 0.0757 µM (active)
- GI50 (SK-MEL-5): 0.0329 µM (active)
- GI50 (OVCAR-5): 0.0738 µM (active)
- GI50 (MDA-MB-231): 0.0505 µM (active)
- GI50 (T47D): 15.6 µM (inactive)
- GI50 (MCF7): 0.115 µM (active)
- GI50 (UACC-257): > 100 µM (inactive)
- GI50 (UO-31): 0.0724 µM (active)
- GI50 (UACC-62): 0.0392 µM (active)
- GI50 (HCT-15): 0.0267 µM
- GI50 (SK-OV-3): 0.0368 µM (active)
- GI50 (RPMI-8226): 0.0402 µM (active)
- GI50 (NCI-H226): 0.0432 µM (active)
- GI50 (A498): 0.0579 µM (active)
- GI50 (PC-3): 0.0239 µM (active)
- GI50 (MDA-MB-435): < 0.01 µM (active)
- GI50 (TK-10): 0.161 µM (active)
- GI50 (NCI-H23): 0.151 µM (active)
- GI50 (HOP-62): 0.0662 µM (active)
- GI50 (KM12): 0.0327 µM (active)
- GI50 (786-0): 0.0384 µM (active)
- GI50 (SNB-75): 0.0171 µM (active)
- GI50 (SF-268): 0.0705 µM (active)
- GI50 (U-251): 0.0405 µM (active)
- GI50 (MOLT-4): 0.0531 µM (active)
- GI50 (MDA-N): 0.0112 µM (active)
- GI50 (SW-620): 0.0252 µM (active)
- GI50 (A549): 0.0515 µM (active)

SMILES: C(=N\Nc1ccc(-c2nc3ccccc3[nH]2)cc1)/c1c(-c2ccc(Cc3ccccc3)cc2)[nH]c2ccccc12
- GI50 (SK-MEL-2): 3.56 µM (inactive)
- GI50 (M14): 4.48 µM (inactive)
- GI50 (SK-MEL-28): 12.9 µM (inactive)
- GI50 (RXF 393): 2.29 µM (inactive)
- GI50 (HCT-116): 5.01 µM (inactive)
- GI50 (OVCAR-8): 7.91 µM (inactive)
- GI50 (DU-145): 16.8 µM (inactive)
- GI50 (Hs-578T): 2.57 µM (inactive)
- GI50 (EKVX): 20.4 µM (inactive)
- GI50 (NCI-H522): 9.08 µM (inactive)
- GI50 (OVCAR-3): 9.44 µM (inactive)
- GI50 (SR): 2.15 µM (inactive)
- GI50 (IGROV-1): 4.41 µM (inactive)
- GI50 (HT-29): 3.67 µM (inactive)
- GI50 (OVCAR-4): 14.1 µM (inactive)
- GI50 (Malme-3M): 2.49 µM (inactive)
- GI50 (CCRF-CEM): 5.06 µM (inactive)
- GI50 (SN12C): 18.6 µM (inactive)
- GI50 (SNB-19): 14.2 µM (inactive)
- GI50 (HCC 2998): 3.83 µM (inactive)
- GI50 (CAKI-1): 14.3 µM (inactive)
- GI50 (HOP-92): 4.09 µM (inactive)
- GI50 (HL-60): 7.06 µM (inactive)
- GI50 (LOX IMVI): 4.05 µM (inactive)
- GI50 (NCI-H460): 10.8 µM (inactive)
- GI50 (SF-539): 5.74 µM (inactive)
- GI50 (ACHN): 11 µM (inactive)
- GI50 (K562): 4.46 µM (inactive)
- GI50 (COLO 205): 3.94 µM (inactive)
- GI50 (SF-295): 2.56 µM (inactive)
- GI50 (NCI/ADR-RES): 5.31 µM (inactive)
- GI50 (BT-549): 4.1 µM (inactive)
- GI50 (SK-MEL-5): 6.41 µM (inactive)
- GI50 (OVCAR-5): 26.1 µM (inactive)
- GI50 (MDA-MB-231): 11.5 µM (inactive)
- GI50 (T47D): 7.18 µM (inactive)
- GI50 (MCF7): 5.06 µM (inactive)
- GI50 (UACC-257): 13.5 µM (inactive)
- GI50 (UO-31): 10.8 µM (inactive)
- GI50 (UACC-62): 7.69 µM (inactive)
- GI50 (HCT-15): 4.07 µM
- GI50 (SK-OV-3): 21.6 µM (inactive)
- GI50 (RPMI-8226): 3.08 µM (inactive)
- GI50 (NCI-H226): > 94.4 µM (inactive)
- GI50 (A498): 11.4 µM (inactive)
- GI50 (PC-3): 4.86 µM (inactive)
- GI50 (MDA-MB-435): 3.23 µM (inactive)
- GI50 (TK-10): 21.5 µM (inactive)
- GI50 (NCI-H23): 8.79 µM (inactive)
- GI50 (HOP-62): 19.6 µM (inactive)
- GI50 (KM12): 4.37 µM (inactive)
- GI50 (786-0): 3.3 µM (inactive)
- GI50 (SNB-75): 4.47 µM (inactive)
- GI50 (SF-268): 0.925 µM (active)
- GI50 (U-251): 6.01 µM (inactive)
- GI50 (MOLT-4): 2.56 µM (inactive)
- GI50 (MDA-N): 2.38 µM (inactive)
- GI50 (SW-620): 9.98 µM (inactive)
- GI50 (A549): 6.85 µM (inactive)
